How the values were obtained:
rhBCAT2 = target: T1, rhBCAT2 (Homo sapiens, UniProt O15382); experiment: aminotransferase activity assay with leucine dehydrogenase; format: biochemical
T1 sequence (O15382 28-392): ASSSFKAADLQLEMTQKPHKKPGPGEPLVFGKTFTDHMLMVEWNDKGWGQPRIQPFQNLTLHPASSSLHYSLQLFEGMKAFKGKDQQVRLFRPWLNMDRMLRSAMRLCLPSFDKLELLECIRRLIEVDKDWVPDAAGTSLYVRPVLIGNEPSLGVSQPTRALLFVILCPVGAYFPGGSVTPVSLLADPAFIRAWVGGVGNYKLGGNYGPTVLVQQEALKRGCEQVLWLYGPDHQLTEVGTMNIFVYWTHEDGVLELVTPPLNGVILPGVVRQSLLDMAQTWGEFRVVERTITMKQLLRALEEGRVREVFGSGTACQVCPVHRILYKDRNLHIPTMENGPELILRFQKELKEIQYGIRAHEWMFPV

rhBCAT1 = target: T2, rhBCAT1 (Homo sapiens, UniProt P54687); experiment: as above; format: biochemical
T2 sequence (P54687 1-386): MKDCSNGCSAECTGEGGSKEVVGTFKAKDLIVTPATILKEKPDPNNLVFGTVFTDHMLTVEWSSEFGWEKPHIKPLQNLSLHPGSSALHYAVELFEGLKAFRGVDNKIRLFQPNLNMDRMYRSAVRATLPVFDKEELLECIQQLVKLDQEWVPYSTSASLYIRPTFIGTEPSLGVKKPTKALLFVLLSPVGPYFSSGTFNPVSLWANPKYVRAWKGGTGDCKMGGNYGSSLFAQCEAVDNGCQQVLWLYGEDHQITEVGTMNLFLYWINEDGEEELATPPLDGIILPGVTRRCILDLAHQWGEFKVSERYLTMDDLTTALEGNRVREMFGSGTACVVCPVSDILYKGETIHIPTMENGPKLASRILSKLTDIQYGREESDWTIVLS

- IC50 (rhBCAT2): > 1000 nM
- IC50 (rhBCAT1): ~0.5 nM
Structure (SMILES): O=C(O)CCC(C(=O)c1ccc(Br)cc1)c1ccccc1 (centres unmarked) [ERG245]
